In brackets after ≈: the same amount, converted by molar mass. Several values for one entry are separate records, joined by “and”; a condition that tells them apart may be missing. Identical values can stand only once.
Tests used:
adenovirus, type 3 = test: In vitro antiviral, inhibition of virus-induced cytopathogenic effect (CPE), AV/3; type: cell-based; conditions: KB or RK-13 cells, VR >0.5 significant, <0.5 slight antiviral activity
[1] = system: herpes simplex virus, type 1; test: In vitro antiviral, inhibition of virus-induced CPE, HSV/1; type: cell-based; conditions: KB or RK-13 cells, VR >0.5 significant, <0.5 slight antiviral activity
vaccinia virus = type: cell-based; conditions: VV; KB or RK-13 cells; VR >0.5 significant, <0.5 slight antiviral activity
human cytomegalovirus = test: In vitro antiviral, inhibition of virus-induced CPE, HCMV; type: cell-based; conditions: KB or RK-13 cells, VR >0.5 significant, <0.5 slight antiviral activity
murine cytomegalovirus = test: In vitro antiviral, inhibition of virus-induced CPE, MCMV; type: cell-based; conditions: KB or RK-13 cells, VR >0.5 significant, <0.5 slight antiviral activity
Experimental: (§1) In this example, compounds 3, 4, 13, 16, 20, 22, 29 and 30 were tested to determine their in vitro antiviral efficacy, using the inhibition virus-induced cytopathogenic effect (CPE) method of Sidwell, et al. (Applied Microbiology 22:797-801, 1971). Briefly, the CPE procedure includes the suspension of the antiviral agent in a cell culture medium consisting of vitamins, amino acids, serum, buffer, penicillin, streptomycin and indicator dye in water. The virus suspended in the cell culture medium was added to an established monolayer of KB cells or RK-13 cells, and an equal volume of the antiviral agent was then added within 15 minutes. The infected treated cells were graded following microscopic examination. Controls for each experiment include cell controls cells and cell culture medium only), virus controls (cell and virus cell culture medium) and toxicity controls (cells and chemical and cell culture medium).
(§2) The virus rating (VR) system of Sidwell et al., described in Applied Microbiology, supra, was used to evaluate the degree of significance of CPE inhibition.

pseudorabies virus = type: cell-based; conditions: PRV; KB or RK-13 cells; VR >0.5 significant, <0.5 slight antiviral activity
myxoma virus = test: In vitro antiviral, inhibition of virus-induced CPE, MV; type: cell-based; conditions: KB or RK-13 cells, VR >0.5 significant, <0.5 slight antiviral activity
Experimental: as §1, §2

[2] = system: Parainfluenza virus, type 3; test: In vitro antiviral, inhibition of virus-induced CPE, PIV/3; type: cell-based; conditions: PIV/3; KB or RK-13 cells; VR >0.5 significant, <0.5 slight antiviral activity
[3] = system: parainfluenza virus, type 1; test: In vitro antiviral, inhibition of virus-induced CPE, PIV/1; type: cell-based; conditions: PIV/1; KB or RK-13 cells; VR >0.5 significant, <0.5 slight antiviral activity
rhinovirus, type 1A = test: In vitro antiviral, inhibition of virus-induced CPE, RV/1A; type: cell-based; conditions: KB or RK-13 cells, VR >0.5 significant, <0.5 slight antiviral activity
RV/2: rhinovirus, type 1 = test: In vitro antiviral, inhibition of virus-induced CPE, RV/2; type: cell-based; conditions: KB or RK-13 cells, VR >0.5 significant, <0.5 slight antiviral activity
rhinovirus, type 8 = test: In vitro antiviral, inhibition of virus-induced CPE, RV/8; type: cell-based; conditions: KB or RK-13 cells, VR >0.5 significant, <0.5 slight antiviral activity
rhinovirus, type 13 = test: In vitro antiviral, inhibition of virus-induced CPE, RV/13; type: cell-based; conditions: KB or RK-13 cells, VR >0.5 significant, <0.5 slight antiviral activity
rhinovirus, type 30 = test: In vitro antiviral, inhibition of virus-induced CPE, RV/30; type: cell-based; conditions: KB or RK-13 cells, VR >0.5 significant, <0.5 slight antiviral activity
Experimental: as §1, §2

rhinovirus, type 56 = test: In vitro antiviral, inhibition of virus-induced CPE, RV/56; type: cell-based; conditions: KB or RK-13 cells, VR >0.5 significant, <0.5 slight antiviral activity
influenza virus, type Ao = test: In vitro antiviral, inhibition of virus-induced CPE, IV/Ao; type: cell-based; conditions: KB or RK-13 cells, VR >0.5 significant, <0.5 slight antiviral activity
[4] = system: vesicular stomatitis virus; type: cell-based; conditions: VSV; KB or RK-13 cells; VR >0.5 significant, <0.5 slight antiviral activity
Escherichis = test: In vitro antibacterial, broth dilution assay, Escherichia; type: cell-based; conditions: 24 h, read-out: Average MIC
Experimental: (§3) In this example compounds 7 and 30 were tested to determine their in vitro antibacterial activity. Clinical isolates of pathogens were used for this example. In vitro sensitivity of these organisms were quantitatively determined by broth dilution assay. Serial dilutions were prepared in chemically defined medium in a range from 100 to 0.01 μg/ml. The minimal Inhibitory Concentration (MIC) was recorded as the highest dilution of compound which prevented visible growth of the pathogen following 24 hr incubation at 35°.

Proteus = test: In vitro antibacterial, broth dilution assay, Proteus; type: cell-based; conditions: 24 h, read-out: Average MIC
Experimental: as §3

Hela cells = test: Cytotoxicity to Hela cells in tissue culture; type: cell-based
L1210 cells [5] = test: Cytotoxicity to L1210 cells in tissue culture; type: cell-based
Experimental: (§4) In this example compound 30 was tested for antitumor activity in mice. […] A 10^-5 M concentration of compound 30 caused 50% inhibition of the incorporation of ^3 H-thymidine and ^3 H-uridine into the acidinsoluble fraction of L1210 cells in tissue culture. […] Ara C (cytosine arabinoside) was included as a standard.

L1210 cells [6] = test: Inhibition of incorporation of 3H-thymidine into the acid-insoluble fraction of L1210 cells; type: cell-based; conditions: Mus musculus; 10^-5 M; L1210 cells in tissue culture
Experimental: as §4

L1210 cells [7] = test: Inhibition of incorporation of 3H-uridine into the acid-insoluble fraction of L1210 cells; type: cell-based; conditions: Mus musculus; 10^-5 M; L1210 cells in tissue culture
Experimental: as §4

leukemia L1210 = test: Activity against leukemia L1210 in BDF1 female mice; type: in vivo; conditions: qd [1-9]
Experimental: as §4
All animals were inoculated (i.p) with 10^5 leukemic cells. Treatment
was started 24 hours after transplant. Figures in parenthesis denote 21

LD10 = test: LD10; design: species or system mice; conditions: mouse, in vivo
adenocarcinoma 755 = test: Inhibition of growth of subcutaneous implants of adenocarcinoma 755 in C57 Blk/6 female mice; type: in vivo; conditions: 40 mg/kg i.p. (qd, 1-7)

For `Nc1cc2nc[nH]c2c(=O)[nH]1` [Compound 30, 6-Amino-imidazo[4,5c]pyridin-4(5H)one], which “Virus rating (VR)” value (adenovirus, type 3) is on record?
Its value is 1.1.

What about the “Virus rating (VR)” value [1] of the same molecule?
Its value is 1.3.

What about the “Virus rating (VR)” value (vaccinia virus) of the same molecule?
The value was 1.2.

And the “Virus rating (VR)” value (human cytomegalovirus)?
The value was 0.3.

And the “Virus rating (VR)” value (murine cytomegalovirus)?
Its value is 0.6.

And the “Virus rating (VR)” value (pseudorabies virus)?
Its value is 0.3.

And the “Virus rating (VR)” value (myxoma virus)?
Its value is 0.9.

And the “Virus rating (VR)” value [2]?
The value was 1.0.

And the “Virus rating (VR)” value [3]?
Its value is 1.0.

What about the “Virus rating (VR)” value (rhinovirus, type 1A) of the same molecule?
The value was 0.3.

What about the “Virus rating (VR)” value (RV/2: rhinovirus, type 1) of the same molecule?
The value was 1.3.

And the “Virus rating (VR)” value (rhinovirus, type 8)?
The value was 1.3.

And the “Virus rating (VR)” value (rhinovirus, type 13)?
The value was 1.2.

What about the “Virus rating (VR)” value (rhinovirus, type 30) of the same molecule?
Its value is 0.3.

And the “Virus rating (VR)” value (rhinovirus, type 56)?
Its value is 1.1.

What about the “Virus rating (VR)” value (influenza virus, type Ao) of the same molecule?
The value was 0.5.

And the “Virus rating (VR)” value [4]?
Its value is 1.3.

And the MIC (Escherichis)?
The MIC was 6 µg/mL (≈ 40 µM).

And the MIC (Proteus)?
The MIC was 25 µg/mL (≈ 167 µM).

And the “cytotoxic to Hela cells” value (Hela cells)?
Its value is “cytotoxic”.

And the “cytotoxic to L1210 cells” value (L1210 cells [5])?
The value was “cytotoxic”.

And the inhibition at 10 µM (L1210 cells [6])?
Its inhibition at 10 µM is 50%.

And the inhibition at 10 µM (L1210 cells [7])?
The inhibition at 10 µM was 50%.

And the 21 day survivors (leukemia L1210; 20 mg/kg i.p.)?
Its 21 day survivors is 0/6.

What about the “Average Mean Survival” value (leukemia L1210; 20 mg/kg i.p.) of the same molecule?
Its value is 10.83 days.

And the T/C (leukemia L1210; 20 mg/kg i.p.)?
Its T/C is 1.32.

And the “increased the life span” value (leukemia L1210; 20 mg/kg i.p.)?
Its value is 32%.

And the ΔWt. (leukemia L1210; 20 mg/kg i.p.)?
Its ΔWt. is “+2.0 g”.

What about the 21 day survivors (leukemia L1210; 40 mg/kg i.p.) of the same molecule?
The 21 day survivors was 1/6.

What about the “Average Mean Survival” value (leukemia L1210; 40 mg/kg i.p.) of the same molecule?
The value was 12.00 days.

What about the T/C (leukemia L1210; 40 mg/kg i.p.) of the same molecule?
Its T/C is 1.43.

And the “increased the life span” value (leukemia L1210; 40 mg/kg i.p.)?
The value was 43%.

And the ΔWt. (leukemia L1210; 40 mg/kg i.p.)?
The ΔWt. was “+0.4 g”.

What about the 21 day survivors (leukemia L1210; 80 mg/kg i.p.) of the same molecule?
The 21 day survivors was 0/6.

What about the “Average Mean Survival” value (leukemia L1210; 80 mg/kg i.p.) of the same molecule?
The value was 13.33 days.

And the T/C (leukemia L1210; 80 mg/kg i.p.)?
The T/C was 1.63.

And the “increased the life span” value (leukemia L1210; 80 mg/kg i.p.)?
The value was 63%.

And the ΔWt. (leukemia L1210; 80 mg/kg i.p.)?
The ΔWt. was “+1.7 g”.

And the LD10 (LD10)?
Its LD10 is 500 mg/kg.

What about the “inhibition of the growth of subcutaneous implants” value (adenocarcinoma 755) of the same molecule?
The value was 75% and 93%.
